Patent US20250368648A1, “MULTI-CYCLIC IRAK AND FLT3 INHIBITING COMPOUNDS AND USES THEREOF” (CHILDREN'S HOSPITAL MEDICAL CENTER, priority 2022, published 2025)
pKd: −log10 of the molar value.

Tests used:
FLT3 R834Q = target: T1, FLT3 R834Q (Homo sapiens, UniProt P36888, R834Q); assay: DiscoverX KINOMEscan competition binding, FLT3 R834Q; conditions: no ATP
T1 construct: purchased DiscoverX (KINOMEscan); host or cells: E. coli (T7 phage) or HEK-293
T1 sequence (P36888 27-993 R834Q): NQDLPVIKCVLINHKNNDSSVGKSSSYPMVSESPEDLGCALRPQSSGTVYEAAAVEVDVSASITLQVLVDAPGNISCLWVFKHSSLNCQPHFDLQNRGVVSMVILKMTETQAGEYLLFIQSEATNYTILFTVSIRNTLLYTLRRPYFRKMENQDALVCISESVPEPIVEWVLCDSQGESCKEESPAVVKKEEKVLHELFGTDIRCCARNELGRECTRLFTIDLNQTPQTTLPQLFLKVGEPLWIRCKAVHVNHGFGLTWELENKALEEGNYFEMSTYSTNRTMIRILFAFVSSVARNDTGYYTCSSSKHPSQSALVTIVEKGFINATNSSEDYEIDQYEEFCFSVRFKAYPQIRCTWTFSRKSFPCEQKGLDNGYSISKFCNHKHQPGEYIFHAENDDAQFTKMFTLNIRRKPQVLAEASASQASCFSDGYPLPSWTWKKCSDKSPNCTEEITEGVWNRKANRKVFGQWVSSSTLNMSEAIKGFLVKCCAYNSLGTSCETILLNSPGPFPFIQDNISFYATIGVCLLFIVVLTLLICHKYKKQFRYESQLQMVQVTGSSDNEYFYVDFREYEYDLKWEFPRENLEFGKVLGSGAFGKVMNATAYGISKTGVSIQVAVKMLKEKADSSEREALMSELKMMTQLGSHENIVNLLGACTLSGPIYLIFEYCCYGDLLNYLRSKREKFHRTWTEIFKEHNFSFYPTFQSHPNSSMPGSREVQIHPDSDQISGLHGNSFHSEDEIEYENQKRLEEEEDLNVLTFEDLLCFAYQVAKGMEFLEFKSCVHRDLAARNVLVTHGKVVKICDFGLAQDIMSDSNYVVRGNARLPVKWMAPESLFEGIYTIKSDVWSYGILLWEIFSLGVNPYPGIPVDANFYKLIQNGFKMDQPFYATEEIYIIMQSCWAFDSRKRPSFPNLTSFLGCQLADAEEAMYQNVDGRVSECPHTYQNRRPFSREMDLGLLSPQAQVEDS
Source text: (§1) Kinase binding data were obtained for various exemplary compounds prepared according to Examples 2-15 using the DiscoverX KINOMEscan® active site-directed competition binding site-directed assay protocol described below. […] As a result, the data report thermodynamic interaction affinities (Kd values), rather than IC50 values that are dependent on ATP concentrations. The assay uses a DNA-tagged version of the protein kinase, and an immobilized ligand bound to a solid support. Compounds that directly or indirectly prevent kinase binding to the immobilized ligand reduce the amount of kinase captured on the solid support, which is detected using an ultra-sensitive qPCR method. Affinity constants reported from the assay have been reported to be independent of the immobilized ligand used that is coupled to the solid support (See supplemental information in Fabian, M. A. et. al., (2005) Nat. […] Wodicka, L. […] Biol. 17, 1241-1249.) Kinase-tagged T7 phage strains were prepared in an E. coli host derived from the BL21 strain. E. coli were grown to log-phase and infected with T7 phage and incubated with shaking at 32° C. until lysis. […] Kds were determined using an 11-point 3-fold compound dilution series with three DMSO control points. […] The kinase concentration in the eluates was measured by qPCR. Binding constants (Kds) were calculated with a standard dose-response curve using the Hill equation. […]

FLT3 Autoinh. = target: T2, FLT3 Autoinh. (Homo sapiens, UniProt P36888); assay: DiscoverX KINOMEscan competition binding, FLT3 Autoinh.; conditions: no ATP
T2 construct: purchased DiscoverX (KINOMEscan); host or cells: E. coli (T7 phage) or HEK-293
T2 sequence (P36888 564-993 limits assumed): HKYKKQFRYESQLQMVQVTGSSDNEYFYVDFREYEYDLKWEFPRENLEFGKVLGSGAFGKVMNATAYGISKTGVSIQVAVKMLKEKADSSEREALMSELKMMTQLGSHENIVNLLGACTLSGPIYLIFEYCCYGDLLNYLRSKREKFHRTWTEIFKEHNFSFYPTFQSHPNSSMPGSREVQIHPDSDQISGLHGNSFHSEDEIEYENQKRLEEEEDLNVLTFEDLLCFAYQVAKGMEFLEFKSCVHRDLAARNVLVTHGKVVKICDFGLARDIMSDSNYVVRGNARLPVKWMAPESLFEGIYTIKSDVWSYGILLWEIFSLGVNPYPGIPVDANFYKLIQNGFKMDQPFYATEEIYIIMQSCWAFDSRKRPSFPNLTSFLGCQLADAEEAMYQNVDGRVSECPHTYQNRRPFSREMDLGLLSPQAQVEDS
Source text: as §1

Work on `COc1cc2ncc(-c3nc(N[C@H]4CNCC[C@@H]4F)c(F)cc3F)n2nc1C1CCC1` [Compound 15a, 6-(6-cyclobutyl-7-methoxyimidazo[1,2-b]pyridazin-3-yl)-3,5-difluoro-N-((3S,4S)-4-fluoropiperidin-3-yl)pyridin-2-amine] yielded a pKd (FLT3 R834Q) of 9.09 and a pKd (FLT3 Autoinh.) of 8.24.
